PMC2731040 (BMC Clinical Pharmacology, 2009)

Legend:
[1] = humans; cited from earlier work
[2] = Plasma pharmacokinetics of cocaine and benzoylecgonine after IV cocaine-d5 infusion; conditions: plasma, mean ± SD; for half-life / AUC(0-t) / AUC(0-inf) / clearance / Tmax / Vd / Cmax / k el: human, in vivo; for half-life: (t1/2)z; for clearance: CL; for Vd: Vz; for Cmax: iv, cocaine-d5 IV 0.5 mg/kg over 10 min then 2 mg/kg over 4 h; for k el: λz
Description: In this open-label, unblinded study, a 0.5 mg/kg intravenous loading dose of cocaine-d5 HCl over 10 minutes was followed by a slow 4 hour constant rate cocaine-d5 infusion of 2.0 mg/kg(~175 mg for a 70 kg person). […] When this method of cocaine administration is utilized, a larger dose can be given over a longer period of time and approximates frequently reported patterns of cocaine use. This method also allowed for close monitoring and termination of the infusion if untoward psychiatric or cardiovascular effects occurred.
For both cocaine infusions (sessions 1 and 2), plasma samples for cocaine and metabolites (~6 ml) were obtained 5 minutes before and 10 minutes, 0.5, 1, 1.5, 2, 4, 4.25, 4.5, 5, 6, 8, 12, 21, 27, 33, and 45 hours after each cocaine infusion.
Plasma concentrations of cocaine and benzoylecgonine were measured in our laboratory using a method we developed. The method allows for simultaneous determination of cocaine, benzoylecgonine, and deuterium-labeled analogs [cocaine-d5 and benzoylecgonine-d5 (BE-d5)] by using combined gas chromatography-mass spectrometry (GC-MS). Differently labeled stable isotope analogs were used as internal standards. The calibration curves were from 5 to 2,000 ng/mL for cocaine-d5 and 10 to 2,000 ng/mL for BE-d5. Lower limits of quantitation (LLOQ) were 5 ng/ml (cocaine-d5) and 10 ng/ml (BE-d5) in plasma. Qualitative urine benzoylecgonine was measured by Northwest Toxicology Laboratory, Salt Lake City, Utah, using the Roche Diagnostics Online® immunoassay.
The plasma concentration-time profiles for cocaine and benzoylecgonine (BE) were analyzed by non-compartmental methods, utilizing the pharmacokinetic data analysis program WinNonlin Pro, version 3.0 [31].
The area under the plasma concentration-time curve was calculated using the linear trapezoidal rule up to the maximum plasma concentration, and thereafter using the logarithmic trapezoidal rule to the last measurable plasma concentration. The remaining area was extrapolated to infinity by dividing the last appropriate plasma concentration by the terminal exponential rate constant.
Maximum plasma concentration (Cmax) and time of maximum plasma concentration (Tmax) were determined by visual inspection of data. "Terminal" exponential half-life [(t1/2)z] was calculated from log-linear regression of "terminal" exponential phase data points. Cocaine clearance (CL) and terminal exponential volume of distribution (Vz) were calculated by conventional equations: CL = [Dose/Area under the curve (AUC)0-∞] and Vz = CL/λz, respectively, where λz ("terminal" exponential rate constant) = ln2/(t1/2)z. […] Amount of BE in urine samples was calculated by multiplying concentration by volume.

[3] = system: nondependent cocaine-experienced subjects; test: Subjective measures (verbal ratings, visual analog scales, POMS) during cocaine challenge sessions; assay type: in vivo, human; conditions: for Cocaine Craving (0–100), Peak change / Global Intoxication (0–100), Peak change: verbal rating; for Bad Drug Effect (0–100), Peak change / Good Drug Effect (0–100), Peak change: visual analog scale
Excerpt: Verbal ratings of global intoxication and craving (on a scale of 0 to 100) were obtained at the same time points as the physiologic measures, with 0 representing no drug effect and 100 representing the highest level of intoxication or craving.
Visual analog scales were used to rate the degree of drug liking by moving an arrow along a 10 cm line marked at opposite ends as 0 (not at all) and 100 (extreme) using a hand-held computer (Tandy 102). Items rated on the visual analog scale included "good drug effect" and "bad drug effect," and were obtained prior to cocaine infusion and at 0.17, 0.5, 0.75, 1, 1.5, 2, 2.5, 3, 3.5, 4, 4.25, 4.5, 5, 6, and 8 hours after dosing.
The Profile of Mood States (POMS) assessed mood changes in Anger, Confusion, Fatigue, Tension, and Vigor on a scale from 0 to 4, where 0 indicated "no effect" and 4 indicates "extremely strong". Ratings were obtained prior to cocaine infusion and at 1, 3, and 6 hours after dosing.
The time courses of physiologic and subjective data were analyzed by repeated measures analysis of variance (ANOVA). Treatment conditions (Sessions 1 and 2) and observation times (hours post-dose) were considered within-subject factors. Change scores (post-dose minus pre-dose values) were used in most analyses. Raw score were used where indicated. After a significant F test, pairwise comparisons of treatment conditions were performed using the least squares means analysis. Peak effects within a session were determined for each subject and each variable and analyzed using a one-factor repeated measures ANOVA. Effects were considered statistically significant at p = 0.05. Data were adjusted for sphericity using the Huynh-Feldt adjustment factor. Huynh-Feldt-corrected significance values are reported.

[4] = Session 1: first cocaine infusion, before selegiline
[5] = Session 2: second cocaine infusion, after one week of selegiline STS

Structure (SMILES): COC(=O)[C@H]1[C@@H](OC(=O)c2ccccc2)C[C@@H]2CC[C@H]1N2C [Cocaine, cocaine]
- half life of acute pharmacokinetic and dynamic effects [1]: about 1 hour
- AUCext ([2]; Pre Selegiline (session 1)): 1.40 ± 1.03%
- AUCext ([2]; With Selegiline (session 2)): 1.78 ± 1.87%
- half-life ([2]; Pre Selegiline (session 1)): 1.71 ± 0.81 h
- half-life ([2]; With Selegiline (session 2)): 1.57 ± 0.3 h
- AUC(0-t) ([2]; Pre Selegiline (session 1)): 2640 ± 55.6 ng·h/mL
- AUC(0-t) ([2]; With Selegiline (session 2)): 2360 ± 499 ng·h/mL
- AUC(0-inf) ([2]; Pre Selegiline (session 1)): 2680 ± 1470 ng·h/mL
- AUC(0-inf) ([2]; With Selegiline (session 2)): 2400 ± 487 ng·h/mL
- clearance ([2]; Pre Selegiline (session 1)): 18.3 ± 6.17 mL/min/kg
- clearance ([2]; With Selegiline (session 2)): 18 ± 3.34 mL/min/kg
- Tmax ([2]; Pre Selegiline (session 1)): 2.66 ± 1.74 h
- Tmax ([2]; With Selegiline (session 2)): 2.27 ± 2.04 h
- Vd ([2]; Pre Selegiline (session 1)): 2.49 ± 0.88 L/kg
- Vd ([2]; With Selegiline (session 2)): 2.44 ± 0.64 L/kg
- Cmax ([2]; Pre Selegiline (session 1)): 721 ± 773 ng/mL
- Cmax ([2]; With Selegiline (session 2, after one week STS 6 mg/24 hours)): 640 ± 332 ng/mL
- k el ([2]; Pre Selegiline (session 1)): 0.000126 s⁻¹
- k el ([2]; With Selegiline (session 2)): 0.000127 s⁻¹
- Bad Drug Effect, Peak Time [3, 4]: 1.9 ± 2.3 Hr Postdose
- Cocaine Craving, Peak Time [3, 4]: 1.1 ± 1.3 Hr Postdose
- Global Intoxication, Peak Time [3, 4]: 0.7 ± 1 Hr Postdose
- Good Drug Effect, Peak Time [3, 4]: 0.9 ± 1.5 Hr Postdose
- POMS Anger (0–28), Peak change [3, 4]: 2.8 ± 6.4
- POMS Anger, Peak Time [3, 4]: 6 ± 0 Hr Postdose
- POMS Confusion (0–20), Peak change [3, 4]: 2.5 ± 2.8
- POMS Confusion, Peak Time [3, 4]: 6 ± 0 Hr Postdose
- POMS Depression (0–64), Peak change [3, 4]: 3 ± 6.5
- POMS Depression, Peak Time [3, 4]: 3 ± 0 Hr Postdose
- POMS Fatigue (0–28), Peak change [3, 4]: 5.9 ± 5.9
- POMS Fatigue, Peak Time [3, 4]: 6 ± 0 Hr Postdose
- POMS Tension (0–28), Peak change [3, 4]: 7.5 ± 6.1
- POMS Tension, Peak Time [3, 4]: 1 ± 0 Hr Postdose
- POMS Vigor (0–32), Peak change [3, 4]: -3.6 ± 3.4
- POMS Vigor, Peak Time [3, 4]: 6 ± 0 Hr Postdose
- Cocaine Craving (0–100), Peak change [3, 4]: 33 ± 25
- Global Intoxication (0–100), Peak change [3, 4]: 57 ± 27
- Bad Drug Effect (0–100), Peak change [3, 4]: 46 ± 31
- Good Drug Effect (0–100), Peak change [3, 4]: 66 ± 23
- Bad Drug Effect, Peak Time [3, 5]: 1.4 ± 1.9 Hr Postdose
- Cocaine Craving, Peak Time [3, 5]: 0.6 ± 0.7 Hr Postdose
- Global Intoxication, Peak Time [3, 5]: 0.6 ± 0.9 Hr Postdose
- Good Drug Effect, Peak Time [3, 5]: 1 ± 1.3 Hr Postdose
- POMS Anger, Peak Time [3, 5]: 6 ± 0 Hr Postdose
- POMS Confusion (0–20), Peak change [3, 5]: 2.7 ± 4.7
- POMS Confusion, Peak Time [3, 5]: 3 ± 0 Hr Postdose
- POMS Depression (0–64), Peak change [3, 5]: 1.5 ± 2.4
- POMS Depression, Peak Time [3, 5]: 3 ± 0 Hr Postdose
- POMS Fatigue (0–28), Peak change [3, 5]: 2.8 ± 5.3
- POMS Fatigue, Peak Time [3, 5]: 6 ± 0 Hr Postdose
- POMS Tension (0–28), Peak change [3, 5]: 4.8 ± 3.9
- POMS Tension, Peak Time [3, 5]: 1 ± 0 Hr Postdose
- POMS Vigor (0–32), Peak change [3, 5]: -3.9 ± 6.1
- POMS Vigor, Peak Time [3, 5]: 6 ± 0 Hr Postdose
- POMS Anger (0–28), Peak change ([3]; Session 2: second cocaine infusion, after one week of selegiline STS, significantly different from Session 1 (p < 0.03)): -2.1 ± 5.7
- Cocaine Craving (0–100), Peak change [3, 5]: 20 ± 21
- Global Intoxication (0–100), Peak change [3, 5]: 53 ± 23
- Bad Drug Effect (0–100), Peak change [3, 5]: 55 ± 25
- Good Drug Effect (0–100), Peak change [3, 5]: 60 ± 21
- Global intoxication, verbal ratings of craving, and good drug effect compared to baseline ([3]; both cocaine challenge sessions): increased
